≈ marks a conversion by molar mass, not a printed value.
Assays:
[1] = test system: Mycobacterium smegmatis strain (mc2155); experiment: Resazurin microplate MIC on Mycobacterium smegmatis; assay type: cell-based; conditions: mc2155, 7H9 medium, 37° C., 48 hours, resazurin; for MIC: Mycolicibacterium smegmatis, MC2155, 48 h, read-out: MIC (μg/mL) Mycobacterium smegmatis
[2] = test system: Mycobacterium bovis BCG strain; experiment: microbe, parasite or virus in culture; assay type: cell-based; conditions: for MIC: Mycobacterium tuberculosis variant bovis BCG, BCG, 168 h, read-out: MIC (μg/mL) Mycobacterium bovis BCG, BCG strain, 7H9 medium, 37° C., 168 hours, resazurin
[3] = test system: Mycobacterium tuberculosis H37Ra strain; experiment: microbe, parasite or virus in culture; assay type: cell-based; conditions: for MIC: Mycobacterium tuberculosis, H37RA, 168 h, read-out: MIC (μg/mL) Mycobacterium tuberculosis H37Ra
[4] = test system: Mycobacterium tuberculosis (H37Rv); conditions: reports, in words; cited from earlier work

With `Cc1c(C(=O)O[C@H]2C[C@H]3CC[C@]2(C)C3(C)C)nn(-c2ccc(Cl)cc2Cl)c1-c1ccc(Cl)cc1` [Compound 173, (1R,2S,4R)-1,7,7-trimethyl-bicyclo[2.2.1]heptan-2-yl 5-(4-chlorophenyl)-1-(2,4-dichlorophenyl)-4-methyl-1H-pyrazole-3-carboxylate] the MIC [1] was 57.9 µg/mL (≈ 112 µM), the MIC [2] was greater than 232 µg/mL and the MIC [3] was greater than 232 µg/mL.
For `Cc1c(C(=O)NN2CCCCC2)nn(-c2ccc(Cl)cc2Cl)c1-c1ccc(Cl)cc1` [Rimonabant, rimonabant, reference compound], the MIC [1] was 17 µg/mL (≈ 36.6 µM), the “MIC (μg/mL) Mycobacterium smegmatis” value [1] was 16.99 µg/mL (≈ 36.6 µM) and the “MIC (μg/mL) Mycobacterium bovis BCG” value ([2]; BCG strain, 7H9 medium, 37° C., 168 hours, resazurin) was 33.99 µg/mL (≈ 73.3 µM). The MIC [2] was 34 µg/mL (≈ 73.3 µM), the “MIC (μg/mL) Mycobacterium tuberculosis H37Ra” value [3] was 16.99 µg/mL (≈ 36.6 µM) and the MIC [3] was 17 µg/mL (≈ 36.6 µM). The “effect against Mycobacterium tuberculosis (H37Rv)” value [4] was “significant effect”.

— patent publication US11655238B2 (priority 2018, dated 2023)
